Reference: patent US20060051352A1, “CEA binding agents and compositions to reverse CEA-mediated tumorigenic effects on human cancer cells, restore sensitivity to drug induced apoptosis and uses thereof” (priority 2004, published 2006)
Bridge positions count the residues as written; N and C are the ends.

T1: human carcinoembryonic antigen (CEA), wild type (human, UniProt P06731 35-685, glycophosphatidyl inositol (GPI) membrane anchor)
T1 sequence (looked up): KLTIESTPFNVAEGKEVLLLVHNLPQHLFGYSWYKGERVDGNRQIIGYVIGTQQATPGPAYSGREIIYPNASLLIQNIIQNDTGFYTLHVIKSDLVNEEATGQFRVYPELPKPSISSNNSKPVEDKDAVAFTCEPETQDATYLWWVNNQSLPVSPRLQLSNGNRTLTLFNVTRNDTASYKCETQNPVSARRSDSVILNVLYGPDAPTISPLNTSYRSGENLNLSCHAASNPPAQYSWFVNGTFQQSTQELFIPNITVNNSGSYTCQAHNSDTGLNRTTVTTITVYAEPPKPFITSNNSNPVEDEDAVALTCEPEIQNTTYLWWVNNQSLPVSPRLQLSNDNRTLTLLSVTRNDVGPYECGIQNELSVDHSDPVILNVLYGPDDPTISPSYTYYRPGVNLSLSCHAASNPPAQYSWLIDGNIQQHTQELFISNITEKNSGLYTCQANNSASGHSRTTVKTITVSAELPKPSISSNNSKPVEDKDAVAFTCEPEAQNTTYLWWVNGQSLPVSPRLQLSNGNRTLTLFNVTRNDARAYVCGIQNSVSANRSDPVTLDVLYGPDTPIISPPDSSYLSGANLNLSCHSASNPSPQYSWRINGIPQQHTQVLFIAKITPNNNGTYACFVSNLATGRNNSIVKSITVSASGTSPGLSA


Tests used:
[1] = system: human colorectal carcinoma cells; test: Lung metastases of human colorectal carcinoma cells in nude mice; format: in vivo; settings: after 30 days; PEG-A20Fab 200 μg iv, Taxol 5 mg/kg ip every 6 days; versus untreated animals
Procedure: Mice were inoculated by intravenous injection of human colorectal carcinoma cells on day 0. Treatment was initiated either immediately following inoculation or 12 hours thereafter. PEGylated A20 Fab fragments (PEG-A20Fab) were administered intravenously (200 μg or 7-8 mg/kg) every day for the first 2 days followed by every 3 days thereafter. Taxol was administered at 5 mg/kg every 6 days (ip). After 30 days, the number of lung surface colonies, representing metastases, were counted.

[2] = system: human colorectal carcinoma cell lines, SW-1222 and LS-180; settings: A20 Fab 100 μg/ml ex vivo, 0.5 mg/dose iv daily day 3-8; taxol 5 nM ex vivo, 5 mg/kg ip day 4; analysis day 9
Procedure: The efficacy was investigated by a treatment protocol in which the ability of the treated cells to conform to normal colonic tissue architecture and to fail to form tumors, was assessed.
Several experiments were conducted in which the effect on two human colorectal carcinoma cell lines (test cells), when mixed in a defined proportion with normal fetal rat colonic cells and grown as aggregates implanted under the kidney capsule of nude mice, of taxol alone, taxol in combination with irrelevant isotype matched control P3X Fabs, and taxol in combination with A20 Fabs, was compared. The test cells in the “mini-colons” that developed after 7-10 days were assessed for either conformance to normal crypt-like tissue architecture or for formation of tumors (43).
With this in mind, the treatment regimen employed subjecting the test cells to the maximum possible dose over the course of the assay. This regimen included three administrations of A20 Fabs to the test cells in the ex vivo portion of the assay (pre-treatment, during which the aggregates are constructed), followed by daily intravenous injections during the in vivo growth of the implanted aggregates (therapeutic treatment). Pre-treatment of the test cells with A20 Fabs at 100 μg/ml commenced on day 0. […]

[3] = system: CEA-mediated intercellular adhesion; settings: from references (16), (29); cited from earlier work
[4] = biological target: T1, human carcinoembryonic antigen (CEA), …; test: cell-based or functional assay

Molecule	release of CEA-imposed myogenic differentiation block, % fusion of L6 (CEA) cells at 100 µM peptide [4] [% fusion]	also measured
CC(=O)O[C@H]1C(=O)[C@@]2(C)[C@H]([C@H](OC(=O)c3ccccc3)[C@]3(O)C[C@H](OC(=O)[C@H](O)[C@@H](NC(=O)c4ccccc4)c4ccccc4)C(C)=C1C3(C)C)[C@]1(OC(C)=O)CO[C@@H]1C[C@@H]2O [Taxol, Paclitaxel]		number of lung surface colonies [1]: no effect; tumor growth in mini-colons [2]: much larger, more solid and less differentiated
H-CQNDTGC-OH (disulfide 1-7; also: synthetic cyclic peptide) [cyclized peptide representing subdomain 3 of the CEA N domain]		inhibition of CEA-mediated intercellular adhesion [3]: effective in inhibiting CEA-mediated intercellular adhesion
H-CGYSWYKC-OH (disulfide 1-8; SMILES NCCCC[C@@H]1NC(=O)[C@H](Cc2ccc(O)cc2)NC(=O)[C@H](Cc2c[nH]c3ccccc23)NC(=O)[C@H](CO)NC(=O)[C@H](Cc2ccc(O)cc2)NC(=O)CNC(=O)[C@@H](N)CSSC[C@@H](C(=O)O)NC1=O) [cyclized peptide H-CGYSWYKC-OH (subdomain 1)]	18	
H-CGNRQIIC-OH (disulfide 1-8; SMILES CC[C@H](C)[C@@H]1NC(=O)[C@H](CCC(N)=O)NC(=O)[C@H](CCCNC(=N)N)NC(=O)[C@H](CC(N)=O)NC(=O)CNC(=O)[C@@H](N)CSSC[C@@H](C(=O)O)NC(=O)[C@H]([C@@H](C)CC)NC1=O) [cyclized peptide H-CGNRQIIC-OH (subdomain 2)]	28	
H-CQNDTGC-OH (disulfide 1-7; SMILES C[C@@H](O)[C@@H]1NC(=O)[C@H](CC(=O)O)NC(=O)[C@H](CC(N)=O)NC(=O)[C@H](CCC(N)=O)NC(=O)[C@@H](N)CSSC[C@@H](C(=O)O)NC(=O)CNC1=O) [cyclized peptide H-CQNDTGC-OH (subdomain 3)]	36	
